In US20180028425A1, “COSMETIC COMPOSITIONS OF UV FILTERS” (3V Sigma S.P.A., priority 2016, published 2018):

Assay: UV-A/UV-B ratio of the UV filter compounds
Assay type: physicochemical
Description: Typically, the numerical UV-A/UV-B ratio of these compounds, defined as the ratio of the intensity of the radiation absorbed between 320 nm and 400 nm (UVA fraction) to that absorbed between 290 nm and 320 nm (UVB fraction), is greater than 0.20, preferably greater than 0.30, whereas in the analogous triazine compounds with a 4-aminobenzoate or 4-aminobenzamide substituent different from the substituents described in Formula (IV), it is below about 0.14.
The UVA:UVB ratio is the ratio between the intensity of the radiation absorbed between 320 nm and 400 nm (UVA fraction) and that absorbed between 290 nm and 320 nm (UVB fraction).

UVA fraction compared with known triazine analogues (diethylhexyl butamido triazone, ethylhexyl triazone), at least twice as high:
CCCCC(CC)COC(=O)c1ccc(NC(=O)c2ccc(Nc3nc(Nc4ccc(C(=O)Nc5ccc(C(=O)OCC(CC)CCCC)cc5)cc4)nc(Nc4ccc(C(=O)NC(C)(C)C)cc4)n3)cc2)cc1 (stereo not drawn) [Compound (V)]
CCCCC(CC)COC(=O)c1ccc(NC(=O)c2ccc(Nc3nc(Nc4ccc(C(=O)NC(C)(C)C)cc4)nc(Nc4ccc(C(=O)OCC(CC)CCCC)cc4)n3)cc2)cc1 (stereo not drawn) [Compound (VI)]
CCCCC(CC)COC(=O)c1ccc(NC(=O)c2ccc(Nc3nc(Nc4ccc(C(=O)OCC(CC)CCCC)cc4)nc(Nc4ccc(C(=O)OCC(CC)CCCC)cc4)n3)cc2)cc1 (stereo not drawn) [Compound (VII)]
